According to patent publication US20160022810A1, “Method for Treating Cancers by Alternating Immunotherapeutics and Directly Oncolytic Therapeutics” (priority 2014, published 2016):

Columns and labels:
4T1 breast cancer cells [1] = experiment: visible lung metastases, CATS versus paclitaxel (FIG. 7); type: in vivo, BALB/c mice; settings: two boluses separated by 2 days; 100 micrograms
Text: This reflects into a much stronger anti-metastatic activity (FIG. 7) of CATS™ over paclitaxel, that translates to survival benefits. In this study, 40 BALB/c mice were orthotopically implanted in the mammary pad on Day 0 with 1×10^4 4T1 breast cancer cells. When tumor volume approximated 200 mm^3 (on Day 17), mice were randomly distributed into four cohorts of ten mice each. […] Mice were sacrificed when tumor diameter reached 14 mm (Day 30), at which time mice were euthanized, lungs removed, and visible lung metastases were quantitated by a second observer blinded to the treatment protocols. Floating bars depict maximum and minimum number of metastases each cohort, horizontal line indicates mean±SE.

4T1 breast cancer cells [2] = experiment: survival with single regimen, cyclophosphamide or CATS (FIG. 8); type: in vivo; settings: 80 mg/kg ip weekly from Day 16; no mice survived beyond; control 37 days
Procedure: Thirty mice were orthotopically implanted with 5×10^4 4T1 breast cancer cells in their mammary fat pad on Day 0. On Day 16, mice were randomized into three cohorts of ten mice each to receive weekly doses of either carrier control (Brown line, Placebo, 25 ng iv), cyclophosphamide cytotoxic drug (CD) chemotherapy (Green line, CD, 80 mg/kg ip) or CATS™ immunotherapy (Purple line, 25 ng iv). Kaplan-Meier curves analyzing surviving mice in each cohort show no mice survived beyond 37 days in the control group, or 46 days in the CD group, while 4 of 10 mice were alive at day 62 in the CATS™ treatment group.

4T1 cells = experiment: survival with CATS alternating with cyclophosphamide (FIG. 10); type: in vivo, mice; settings: cyclophosphamide alone 80 mg/kg ip, two boluses over 48 hours from Day 20, then weekly
Procedure: This Kaplan-Meier graph plots survival of three groups of mice (10/cohort) implanted with 1×10^4 4T1 cells on Day 0 and initiated to treatment on Day 20 with two bolus doses over the first 48 hours, and thereafter once weekly of either placebo (blue, 50 ng IV), cyclophosphamide (Cy, orange, 80 mg/kg ip) or alternating therapy (CATS/Cy, green, 50 ng IV CATS™ boluses or every other week, alternating every other week with Cy 80 mg/kg). In this trial 100% of mice treated with CATS™ alternating therapy survived 75 days, at which time the trial was terminated.

CC(=O)O[C@H]1C(=O)[C@@]2(C)[C@H]([C@H](OC(=O)c3ccccc3)[C@]3(O)C[C@H](OC(=O)[C@H](O)[C@@H](NC(=O)c4ccccc4)c4ccccc4)C(C)=C1C3(C)C)[C@]1(OC(C)=O)CO[C@@H]1C[C@@H]2O [Taxol, paclitaxel]
tolerability of consolidation dosing (4T1 breast cancer cells [1]): toxic

O=P1(N(CCCl)CCCl)NCCCO1 (stereo not drawn) [cyclophosphamide]
longest survival (4T1 breast cancer cells [2]): ≤ 46 days
survival at Day 40 (4T1 cells): all of the mice receiving cyclophosphamide alone were dead
